Assay results as given in patent US20240408167A1, “COMPOSITION FOR TREATING OCULAR DISEASES CONTAINING PEPTIDE” (Encuragen Inc., priority 2023, published 2024).
Values joined by “and” are separate entries in the source; they are usually repeats but may differ in a detail not shown here. Identical values can stand only once.

How the values were obtained:
[1] = test system: apoptotic cells in cornea and conjunctiva; test: Apoptotic cells by TUNEL assay, EDE mouse model; format: in vivo; conditions: 0.001%, 0.01%, 0.1%
Description: (§1) The eyes and appendages from each group were excised, fixed in the modified Davidson's solution, and embedded in paraffin, and the tissue sections were TUNEL-stained. In each section, the degree of apoptosis in the cornea and conjunctiva was measured using ZEN (Zeiss, Oberkochen, Germany) and Image J v1.51j8 (NIH, Bethesda, MD, USA) software programs.
As DED progresses, the epithelium of the anterior segment of the eye undergoes pathological deformations, including functional damages and structural changes such as abnormal tear sebum secretion and pathogenic cell death. Apoptotic cells that were present in an equal area of the cornea and conjunctiva of one eye per group were quantified by the TUNEL assay.

corneal epithelium = test: Corneal epithelial thickness after H&E staining, EDE rabbit model; format: in vivo; conditions: all treatment groups (0.1%, 0.2%, 0.4%), vs vehicle, p<0.001
Text: The extracted eyes were washed with phosphate-buffered saline (PBS), fixed in the modified Davidson's solution, and embedded in paraffin (Histocore Arcadia, Leica, Wetzlar, Germany). Afterwards, paraffin blocks were sliced into sections of a ˜6 μm thickness, mounted on microscope slides (HistoCore AUTOCUT, Leica, Germany), air dried, and stained with hematoxylin-eosin. The stained tissue slides were imaged, and data were obtained using an optical microscope/digital slide scanner (Axio Scan.Z1, Zeiss, Oberkochen, Germany). Image measurement was performed using ZEN (Zeiss, Germany) and ImageJ (NIH, Bethesda, […], USA) software programs.
The pathophysiology of dry eye syndrome includes pathological changes in the epithelium such as erosion, cicatrix, scar, corneal neovascularization and, in severe conditions, corneal perforation. The protective effect of (PEG)-BHD1028 on the epithelium was evaluated by measuring the corneal thickness using ZEN (Zeiss, Germany) microscopy software program after H&E tissue staining.

[2] = test system: apoptotic cells in cornea and conjunctiva; test: Apoptotic cells by TUNEL, rabbit model; format: in vivo; conditions: for cell death rate in the conjunctiva: Day 10; for percentage of apoptotic cells per unit area, cornea: after 10 days
Description: as §1
The percentage of the apoptotic cells per unit area was evaluated after 10 days in the rabbit model. In the cornea, apoptotic cells were detected at a percentage of 35±6% in the normal control group and 74±2% in the vehicle group. In the 0.1%, 0.2%, and 0.4% (PEG)-BHD1028 treatment groups, the percentage was 40±12%, 39±3%, and 35±4%, respectively. […] In addition, the cell death rate in the conjunctiva was 7±5% in the normal control group and 56±4% in the vehicle group. The percentage in the 0.1%, 0.2% and 0.4% (PEG)-BHD1028 treatment groups was 35±4%, 26±3% and 19±4% on Day 10.

[3] = Osmotic pressure of trehalose-only formulations; format: physicochemical; conditions: trehalose-only formulation
Description: The osmotic pressure of the trehalose-only formulations according to the (PEG)-BHD1028 content (see Table 5) and the osmotic pressure of the trehalose-mannitol composite formulations according to the (PEG)-BHD1028 content (see Table 6) were measured, and reflecting the experimental results, the osmolarity including the 0.5% (PEG)-BHD1028 concentration was adjusted to about 300 mOsm/kg.

[4] = Stability of eye drop formulations stored at 40° C., RP-HPLC; format: physicochemical
Description: Eye drops using (PEG)-BHD1028 were prepared by setting eye characteristics, pH, osmolarity, and viscosity as important parameters. To adjust the above parameters, various reagents and substances were added to the test formulation, which was stored at 40° C. to confirm the stability of the formulation. In addition, the reagents used in the target preparation were mainly determined by considering the stability of the drug and the suitability of the manufacturing process. The stability of the formulation was determined based on the RP-HPLC analysis data. The shelf life was set as the period before a single impurity reached 1.0 area %, reflecting the mean kinetic temperature (MKT).
The shelf life was calculated based on the stability data reflecting the mean kinetic temperature (MKT). […] Based on this calculation, the lifespan was calculated by multiplying the number of days immediately before the area % of a single impurity reached 1.0% by a factor of 5. The target shelf life was set at 6 months or longer at 25° C., and the stability of the trehalose-only formulation is expected to have a shelf life of about 7 months.

CD11b+ monocytes = CD11b+ monocytes by flow cytometry, EDE mouse model; format: in vivo; conditions: for geometric mean number of CD11b+ monocytes: cornea
Description: The cornea, conjunctiva, and each tissue required for analysis were excised with scissors, incised, and shaken with 0.5 mg/mL collagenase type D at 37° C. for 1 hour. After pulverizing the tissue, the resulting mixture was passed through a cell strainer, centrifuged, and resuspended in phosphate-buffered saline containing 1% bovine serum albumin.
In DED, corneal barrier destruction and epithelial cell loss are accompanied by bone marrow and T cell infiltration. Activated T lymphocytes are the primary producers of Th-1 cytokines and interferon (IFN)-γ, which promote cell death at the ocular surface. To evaluate the anti-inflammatory effect of (PEG)-BHD1028 in the EDE mouse model, immune cells that play the role of inflammatory cell surface markers were quantified by flow cytometry with one animal per group.

BALB/3T3 clone A31 cells = test: cells; format: cell-based
Description: To evaluate the phototoxicity of (PEG)-BHD1028, the potential phototoxicity of (PEG)-BHD1028 was measured in the BALB/3T3 clone A31 cells after UV exposure. The test substance and the positive control group (chlorpromazine hydrochloride; CPZ) were dissolved in a Hank's Balanced Salt Solution (HBSS) and then diluted with a Hank's Balanced Salt Solution (HBSS). The cells were trypsinized and counted. Thereafter, 1×10^4 cells per well were seeded in a 96-well plate and cultured for approximately 24 hours before treating the test samples. One hour after the sample treatment, the plate was irradiated with a UV irradiation system (UVA, 365 nm). After UV irradiation, the plate was incubated for 24 hours. The cell viability of the cultured cells was confirmed by measuring the absorbance at 540 nm using the neutral red staining method.

For “NH2-Tyr-Tyr-Phe-Ala-Tyr-His-Pro-Asn-Ile-Pro-Gly-Leu-Tyr-Tyr-Phe-COOH (H-YYFAYHPNIPGLYYF-OH; also: PEGylated, site not given here (mPEG), acetate salt) [(PEG)-BHD1028]”, the “antiapoptotic effect (TUNEL) in the cornea and conjunctiva” value [1] was “dose-dependent antiapoptotic effect”, the “mean corneal epithelial thickness” value (corneal epithelium) was “significantly greater than that of the vehicle treated animals” and the “cell death rate in the conjunctiva” value ([2]; 0.1%) was 35±4%. The “percentage of apoptotic cells per unit area, cornea” value (from here on “percentage … per unit area, cornea”) ([2]; 0.1%) was 40±12%, the “cell death rate in the conjunctiva” value ([2]; 0.2%) was 26±3% and the “percentage … per unit area, cornea” value ([2]; 0.2%) was 39±3%. For the same substance, the “cell death rate in the conjunctiva” value ([2]; 0.4%) was 19±4%, the “percentage … per unit area, cornea” value ([2]; 0.4%) was 35±4% and the “osmotic pressure, Mean” value ([3]; 0.5%) was 300.33 mOsm/kg. For the same substance, the “osmotic pressure, single measurements #1-#3” value ([3]; 0.5%) was 299 mOsm/kg and 301 mOsm/kg, the “osmotic pressure, Mean” value ([3]; 1.5%) was 308.67 mOsm/kg and the “osmotic pressure, single measurements #1-#3” value ([3]; 1.5%) was 310 mOsm/kg and 309 mOsm/kg and 307 mOsm/kg. The “osmotic pressure, Mean” value ([3]; 4.5%) was 335.00 mOsm/kg, the “osmotic pressure, single measurements #1-#3” value ([3]; 4.5%) was 335 mOsm/kg and the formulation stability ([4]; eye drops with sodium EDTA (0.5%), 40° C. for 25 days) was “stability was maintained”. For the same substance, the “formulation stability (impurities)” value ([4]; eye drops with sodium bisulfate (0.03%), Day 7 at 40° C.) was “impurities rapidly increased”, the impurities ([4]; eye drops with sodium hyaluronate 0.1%, 40° C. for 37 days, all impurities) was “less than 1.0 area %” and the “formulation stability and pH, water versus PBS as diluent” value ([4]; eye drops, between the two formulations) was “no significant difference in stability data and pH”. For the same substance, the formulation stability ([4]; formulations including PEG (PEG400, PEG5000, PEG3350) as osmotic reagent) was “considerably decomposed”, the formulation stability ([4]; formulations including salts such as KCl and NaCl, Day 6 at 40° C.) was “considerably decomposed” and the formulation stability ([4]; mannitol, trehalose, or a combination of mannitol and trehalose as osmotic reagent) was “stable”. The “number of CD11b+ monocytes” value (CD11b+ monocytes; conjunctiva, 0.001%) was 352.09, the “number of CD11b+ monocytes” value (CD11b+ monocytes; conjunctiva, 0.01%) was 330.48 and the “number of CD11b+ monocytes” value (CD11b+ monocytes; conjunctiva, 0.1%) was 36.35. The “geometric mean number of CD11b+ monocytes” value (“geometric mean number” for short) (CD11b+ monocytes; 0.001%) was 178.06, the “geometric mean number” value (CD11b+ monocytes; 0.01%) was 131.59 and the “geometric mean number” value (CD11b+ monocytes; 0.1%) was 126.25. For the same substance, the “number of CD11b+ monocytes” value (CD11b+ monocytes; lacrimal gland, 0.001%) was 84, the “number of CD11b+ monocytes” value (CD11b+ monocytes; lacrimal gland, 0.01%) was 74.60 and the “number of CD11b+ monocytes” value (CD11b+ monocytes; lacrimal gland, 0.1%) was 60.48. The “MPE (mean photo effect)” value (BALB/3T3 clone A31 cells) was 0.003, the “PIF (photo irradiation factor)” value (BALB/3T3 clone A31 cells) was 1.000 and the “phototoxicity classification by PIF and MPE” value (BALB/3T3 clone A31 cells) was “non-phototoxic”. For the same substance, the “IC50 UV (+Irr)” value (BALB/3T3 clone A31 cells; BALB/3T3 clone A31 cells, UVA 365 nm irradiation, neutral red) was greater than 1000 µg/mL and the “IC50 UV (−Irr)” value (BALB/3T3 clone A31 cells; BALB/3T3 clone A31 cells, without UV irradiation, neutral red) was greater than 1000 µg/mL.
